Measurements from PubChem BioAssay (NCI).
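Values below derive from 48-hour exposures of cells grown in 96-well plates, with endpoints linearly interpolated between the two concentrations bracketing the appropriate inhibition level. Definition used: TGI = concentration required for complete inhibition of growth.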

Columns and labels:
Test in all cases: NCI tumour cell line growth inhibition, 48 h
HOP-62 NSCLC = test system: HOP-62 NSCLC
MCF7 breast = test system: MCF7 breast
SK-MEL-28 melanoma = test system: SK-MEL-28 melanoma
SN12C renal = test system: SN12C renal
UACC-62 melanoma = test system: UACC-62 melanoma
CAKI-1 renal = test system: CAKI-1 renal
SNB-75 CNS = test system: SNB-75 CNS
SR leukemia = test system: SR leukemia
SK-MEL-5 melanoma = test system: SK-MEL-5 melanoma
NCI-H460 lung = test system: NCI-H460 lung
MDA-N = test system: MDA-N
M14 melanoma = test system: M14 melanoma
KM12 colon = test system: KM12 colon
786-0 renal = test system: 786-0 renal
BT-549 breast = test system: BT-549 breast
K-562 leukemia = test system: K-562 leukemia
TK-10 renal = test system: TK-10 renal
A498 renal = test system: A498 renal
RXF 393 renal = test system: RXF 393 renal
OVCAR-3 ovarian = test system: OVCAR-3 ovarian
U251 CNS = test system: U251 CNS
MDA-MB-435 = test system: MDA-MB-435
HCC-2998 colon = test system: HCC-2998 colon
HCT-116 colon = test system: HCT-116 colon
SF-295 CNS = test system: SF-295 CNS
SK-OV-3 ovarian = test system: SK-OV-3 ovarian
UACC-257 melanoma = test system: UACC-257 melanoma
SF-539 CNS = test system: SF-539 CNS
CCRF-CEM leukemia = test system: CCRF-CEM leukemia
HL-60(TB) leukemia = test system: HL-60(TB) leukemia
NCI-H226 lung = test system: NCI-H226 lung
COLO 205 colon = test system: COLO 205 colon
T-47D breast = test system: T-47D breast
SNB-19 CNS = test system: SNB-19 CNS
ACHN renal = test system: ACHN renal
OVCAR-4 ovarian = test system: OVCAR-4 ovarian
DU-145 prostate = test system: DU-145 prostate
MALME-3M melanoma = test system: MALME-3M melanoma
LOX IMVI melanoma = test system: LOX IMVI melanoma
OVCAR-5 ovarian = test system: OVCAR-5 ovarian
NCI-H23 lung = test system: NCI-H23 lung
IGROV1 ovarian = test system: IGROV1 ovarian
HOP-92 NSCLC = test system: HOP-92 NSCLC
MOLT-4 leukemia = test system: MOLT-4 leukemia
EKVX NSCLC = test system: EKVX NSCLC
SF-268 CNS = test system: SF-268 CNS
SK-MEL-2 melanoma = test system: SK-MEL-2 melanoma
MDA-MB-231 breast = test system: MDA-MB-231 breast
UO-31 renal = test system: UO-31 renal
OVCAR-8 ovarian = test system: OVCAR-8 ovarian
PC-3 prostate = test system: PC-3 prostate
HS 578T breast = test system: HS 578T breast
A549 NSCLC = test system: A549 NSCLC
HT29 colon = test system: HT29 colon
HCT-15 colon = test system: HCT-15 colon
NCI-H522 lung = test system: NCI-H522 lung
NCI/ADR-RES ovarian = test system: NCI/ADR-RES ovarian
RPMI-8226 leukemia = test system: RPMI-8226 leukemia
SW-620 colon = test system: SW-620 colon

In the case of `O=c1oc2ccccc2c(O)c1/C=N\c1nc(-c2ccc(O)c(O)c2)cs1`, the TGI (HOP-62 NSCLC) is reported as 31.2 µM, the TGI (MCF7 breast) is reported as 17.4 µM and the TGI (SK-MEL-28 melanoma) is reported as 24.1 µM. The TGI (SN12C renal) was 15.6 µM, the TGI (UACC-62 melanoma) was 16.9 µM and the TGI (CAKI-1 renal) was 16.5 µM. The TGI (SNB-75 CNS) was 15.4 µM, the TGI (SR leukemia) was 4.43 µM and the TGI (SK-MEL-5 melanoma) was 16.9 µM. For the same compound, the TGI (NCI-H460 lung) was 14.3 µM, the TGI (MDA-N) was 18.8 µM and the TGI (M14 melanoma) was 10.3 µM. It also gave a TGI (KM12 colon) of 29.6 µM, a TGI (786-0 renal) of 10.2 µM and a TGI (BT-549 breast) of 25.8 µM. The TGI (K-562 leukemia) was 10.4 µM, the TGI (TK-10 renal) was 10.7 µM and the TGI (A498 renal) was > 46.7 µM. For the same compound, the TGI (RXF 393 renal) was 18.1 µM, the TGI (OVCAR-3 ovarian) was 5.94 µM and the TGI (U251 CNS) was 17.3 µM. It also gave a TGI (MDA-MB-435) of 20.4 µM, a TGI (HCC-2998 colon) of 16.3 µM and a TGI (HCT-116 colon) of 7.61 µM. The TGI (SF-295 CNS) was > 100 µM, the TGI (SK-OV-3 ovarian) was 21.4 µM and the TGI (UACC-257 melanoma) was 10.3 µM. The TGI (SF-539 CNS) was 12.5 µM, the TGI (CCRF-CEM leukemia) was 4.58 µM and the TGI (HL-60(TB) leukemia) was 8.31 µM. The TGI (NCI-H226 lung) was 42.2 µM, the TGI (COLO 205 colon) was 6.76 µM and the TGI (T-47D breast) was 32 µM. For the same compound, the TGI (SNB-19 CNS) was 39.1 µM, the TGI (ACHN renal) was 9.77 µM and the TGI (OVCAR-4 ovarian) was 27.5 µM. For the same compound, the TGI (DU-145 prostate) was 17.9 µM, the TGI (MALME-3M melanoma) was 9.17 µM and the TGI (LOX IMVI melanoma) was 14.7 µM. It also gave a TGI (OVCAR-5 ovarian) of 31.9 µM, a TGI (NCI-H23 lung) of 9.87 µM and a TGI (IGROV1 ovarian) of 23.9 µM. It also gave a TGI (HOP-92 NSCLC) of 28.5 µM, a TGI (MOLT-4 leukemia) of 3.34 µM and a TGI (EKVX NSCLC) of 28.4 µM. The TGI (SF-268 CNS) was 22.1 µM, the TGI (SK-MEL-2 melanoma) was 7.04 µM and the TGI (MDA-MB-231 breast) was 18.7 µM. The TGI (UO-31 renal) was 9.24 µM, the TGI (OVCAR-8 ovarian) was > 100 µM and the TGI (PC-3 prostate) was 10.6 µM. For the same compound, the TGI (HS 578T breast) was > 80.8 µM, the TGI (A549 NSCLC) was 26.6 µM and the TGI (HT29 colon) was 23.6 µM. For the same compound, the TGI (HCT-15 colon) was 14.9 µM, the TGI (NCI-H522 lung) was 5.29 µM and the TGI (NCI/ADR-RES ovarian) was > 72.2 µM. For the same compound, the TGI (RPMI-8226 leukemia) was 5.3 µM and the TGI (SW-620 colon) was 9.64 µM.

For `COc1ccc(CNC(=O)[C@H](Cc2ccc(O)cn2)NC(C)=O)cc1OC`, the TGI (HOP-62 NSCLC) was > 100 µM, the TGI (MCF7 breast) was > 100 µM and the TGI (SK-MEL-28 melanoma) was > 100 µM. The TGI (SN12C renal) was > 100 µM, the TGI (UACC-62 melanoma) was > 100 µM and the TGI (CAKI-1 renal) was > 100 µM. For the same compound, the TGI (SNB-75 CNS) was > 100 µM, the TGI (SR leukemia) was > 100 µM and the TGI (SK-MEL-5 melanoma) was > 100 µM. The TGI (NCI-H460 lung) was > 100 µM, the TGI (MDA-N) was > 100 µM and the TGI (M14 melanoma) was > 100 µM. The TGI (KM12 colon) was > 100 µM, the TGI (786-0 renal) was > 100 µM and the TGI (BT-549 breast) was > 100 µM. The TGI (K-562 leukemia) was > 100 µM, the TGI (TK-10 renal) was > 100 µM and the TGI (A498 renal) was > 100 µM. For the same compound, the TGI (RXF 393 renal) was > 100 µM, the TGI (OVCAR-3 ovarian) was > 100 µM and the TGI (U251 CNS) was > 100 µM. The TGI (MDA-MB-435) was > 100 µM, the TGI (HCC-2998 colon) was > 100 µM and the TGI (HCT-116 colon) was > 100 µM. For the same compound, the TGI (SF-295 CNS) was > 100 µM, the TGI (SK-OV-3 ovarian) was > 100 µM and the TGI (UACC-257 melanoma) was > 100 µM. For the same compound, the TGI (SF-539 CNS) was > 100 µM, the TGI (CCRF-CEM leukemia) was > 100 µM and the TGI (HL-60(TB) leukemia) was > 100 µM. The TGI (NCI-H226 lung) was > 100 µM, the TGI (COLO 205 colon) was > 100 µM and the TGI (T-47D breast) was > 100 µM. The TGI (SNB-19 CNS) was > 100 µM, the TGI (ACHN renal) was > 100 µM and the TGI (OVCAR-4 ovarian) was > 100 µM. The TGI (DU-145 prostate) was > 100 µM, the TGI (MALME-3M melanoma) was > 100 µM and the TGI (LOX IMVI melanoma) was > 100 µM. For the same compound, the TGI (OVCAR-5 ovarian) was > 100 µM, the TGI (NCI-H23 lung) was > 100 µM and the TGI (IGROV1 ovarian) was > 100 µM. For the same compound, the TGI (HOP-92 NSCLC) was > 100 µM, the TGI (MOLT-4 leukemia) was > 100 µM and the TGI (EKVX NSCLC) was > 100 µM. For the same compound, the TGI (SF-268 CNS) was > 100 µM, the TGI (SK-MEL-2 melanoma) was > 100 µM and the TGI (MDA-MB-231 breast) was > 100 µM. For the same compound, the TGI (UO-31 renal) was > 100 µM, the TGI (OVCAR-8 ovarian) was > 100 µM and the TGI (PC-3 prostate) was > 100 µM. For the same compound, the TGI (HS 578T breast) was > 100 µM, the TGI (A549 NSCLC) was > 100 µM and the TGI (HT29 colon) was > 100 µM. The TGI (HCT-15 colon) was > 100 µM, the TGI (NCI-H522 lung) was > 100 µM and the TGI (NCI/ADR-RES ovarian) was > 100 µM. The TGI (RPMI-8226 leukemia) was > 100 µM and the TGI (SW-620 colon) was > 100 µM.

Compound `CN(CCCN(C)Cc1ccc(Cl)c(Cl)c1)CCN1CCCC1` has a TGI (HOP-62 NSCLC) of 98.2 µM, a TGI (MCF7 breast) of 43.6 µM and a TGI (SK-MEL-28 melanoma) of 4.6 µM. For the same compound, the TGI (SN12C renal) was > 100 µM, the TGI (UACC-62 melanoma) was 3.67 µM and the TGI (CAKI-1 renal) was > 93.5 µM. It also gave a TGI (SNB-75 CNS) of 81.7 µM, a TGI (SR leukemia) of 31.9 µM and a TGI (SK-MEL-5 melanoma) of 19.5 µM. The TGI (NCI-H460 lung) was 70.5 µM, the TGI (MDA-N) was 15.8 µM and the TGI (M14 melanoma) was 15.7 µM. For the same compound, the TGI (KM12 colon) was > 100 µM, the TGI (786-0 renal) was 31.6 µM and the TGI (BT-549 breast) was > 100 µM. For the same compound, the TGI (K-562 leukemia) was 15 µM, the TGI (TK-10 renal) was > 82.7 µM and the TGI (A498 renal) was 28.2 µM. The TGI (RXF 393 renal) was 67.9 µM, the TGI (OVCAR-3 ovarian) was > 100 µM and the TGI (U251 CNS) was 47 µM. The TGI (MDA-MB-435) was 11.7 µM, the TGI (HCC-2998 colon) was 11.8 µM and the TGI (HCT-116 colon) was > 54.2 µM. For the same compound, the TGI (SF-295 CNS) was 53.9 µM, the TGI (SK-OV-3 ovarian) was > 100 µM and the TGI (UACC-257 melanoma) was 7.18 µM. The TGI (SF-539 CNS) was 45.1 µM, the TGI (CCRF-CEM leukemia) was 24.6 µM and the TGI (HL-60(TB) leukemia) was > 100 µM. For the same compound, the TGI (NCI-H226 lung) was 55.6 µM, the TGI (COLO 205 colon) was 33 µM and the TGI (T-47D breast) was > 80.6 µM. For the same compound, the TGI (SNB-19 CNS) was > 100 µM, the TGI (ACHN renal) was > 100 µM and the TGI (OVCAR-4 ovarian) was > 100 µM. The TGI (DU-145 prostate) was > 100 µM, the TGI (MALME-3M melanoma) was 30.9 µM and the TGI (LOX IMVI melanoma) was 41.2 µM. The TGI (OVCAR-5 ovarian) was > 86.3 µM, the TGI (NCI-H23 lung) was > 100 µM and the TGI (IGROV1 ovarian) was > 62.8 µM. For the same compound, the TGI (HOP-92 NSCLC) was > 28.3 µM, the TGI (MOLT-4 leukemia) was 37.1 µM and the TGI (EKVX NSCLC) was > 100 µM. For the same compound, the TGI (SF-268 CNS) was > 93.5 µM, the TGI (SK-MEL-2 melanoma) was 26.4 µM and the TGI (MDA-MB-231 breast) was 37.3 µM. The TGI (UO-31 renal) was 10 µM, the TGI (OVCAR-8 ovarian) was > 100 µM and the TGI (PC-3 prostate) was > 100 µM. For the same compound, the TGI (HS 578T breast) was > 53.6 µM, the TGI (A549 NSCLC) was > 80.9 µM and the TGI (HT29 colon) was 32.2 µM. For the same compound, the TGI (HCT-15 colon) was > 88.4 µM, the TGI (NCI-H522 lung) was 37.1 µM and the TGI (NCI/ADR-RES ovarian) was > 100 µM. For the same compound, the TGI (RPMI-8226 leukemia) was 17.5 µM and the TGI (SW-620 colon) was > 100 µM.
